One compound from patent publication US20100167335A1, “METHODS FOR DIAGNOSING AND TREATING ALLERGIES” (The Research Foundation of State University of New York, priority 2008, published 2010) can be followed below.

Structures are written as SMILES.

Type in all cases: cell-based, human
Assay [1] has as its system PBMC from allergic asthmatics infected with C. pneumoniae. Kind of assay: In vitro IgE release by PBMC cultures infected with C. pneumoniae MOI 0.1, day 10 (Example 3). As for the experimental part:
(§1) Peripheral blood (15 mL total) was obtained from patients and controls in ethylenediaminotetraacetic (EDTA) tubes. PBMC were isolated from whole blood on Ficoll-Paque (GE Healthcare, Sweden) and then washed in RPMI 1640 with 10% fetal bovine serum (FBS), and resuspended in complete RPMI 1640 (c-RPMI). C-RPMI contained RPMI-1640 Medium HEPES Modification supplemented by L-glutamine 5 mM and 10% FBS. Cells were counted and cell viability evaluated with trypan blue dye using a hemocytometer. PBMC (1.5×10^6/mL) were cultured in duplicate in 24 flat bottom well plates (1 ml/well) for up to 12 days in absolute humidification and 5% CO2. Cell viability at 0, 48 and 240 hours was >95%. Following a 2 h incubation to allow adherance PBMC cultures were infected or stimulated in the presence or absence of doxycycline. Doxycycline was reconstituted in a 1× sterile Dulbecco's Phosphate Buffered Saline (PBS).
(§2) PBMC were infected by adding purified EB at a multiplicity of infection (MOI) of 0.01-5 for 1 hour, followed by further incubation in the presence or absence of doxycycline, at 0.01, 0.1, 1.0 μg/mL, for 2 and 10 days p.i. at 37.0° C. in complete medium in a humidified 5% CO2 atmosphere. The time points 2 d (for cytokines) and 10 d p.i. […] Adherent cells were stained with monoclonal genus specific antibodies to confirm and quantify infection with C. pneumoniae at 72 h post infection. Identical volumes of inactivated C. pneumoniae were added in some experiments. C. pneumoniae was inactivated by incubation in a 56° C. water bath for 30 minutes. […]
Doxycycline at a concentration of 1 μg/ml was added to PBMC cultures after one hour incubation with C. pneumoniae MOI of 0.1. […] In FIG. 5, the data is expressed as percent control (PBMC day 10 p.i.); the mean change was 48% decrease; p=0.043. In FIG. 6, the data is expressed as mean IgE±SD (ng/ml) in cultures with the following conditions: uninfected cells (Naïve); Cpn MOI=0.1; Cpn MOI=0.1 and doxycycline […]; Cpn MOI of 1.0 and heat inactivated Cpn.

Assay [2] relates to IL-4 in PBMC culture from serum IgE+ allergic asthmatics. Kind of assay: IL-4 release by PBMC cultures infected with C. pneumoniae MOI 0.1 (Example 3). As to the method: as §1, §2
(§3) In order to characterize the contribution of different T lymphocyte subpopulations to in vitro IgE production, cytokine concentration in infected and uninfected PBMC cultures were analyzed and determined. […]
(§4) To determine the effect of doxycycline on cytokine release by PBMC, doxycycline (0.01-1.0 ng/ml) was added to culture following infection with C. pneumoniae (MOI=0.1). […] In FIG. 8, the data is expressed as a percent control (PBMC day 10 p.i.), 100% is the mean highest response to Cpn; *P<0.05 for doxycycline treated cultures versus no doxycycline.

Assay [3] deals with IFN-γ in PBMC culture from serum IgE+ allergic asthmatics. Kind of assay: IFN-γ release by PBMC cultures infected with C. pneumoniae MOI 0.1 (Example 3). The note with it: for IFN-γ level, mean % change: p=NS. As to the method: as §1, §2, §3, §4

As to `C[C@H]1c2cccc(O)c2C(=O)C2=C(O)[C@]3(O)C(=O)C(C(N)=O)=C(O)[C@@H](N(C)C)[C@@H]3[C@@H](O)[C@@H]21` [doxycycline], the “mean change of IgE response, decrease (FIG. 5, percent control)” value in assay [1] (FIG. 5, individual subjects n=5, PBMC day 10 p.i., Cpn MOI=0.1, p=0.043) is 48%. In addition, in assay [1] (doxycycline 1 μg/ml added after 1 h incubation with C. pneumoniae MOI 0.1, day 10, p=0.043), the “suppression of IgE responses (average)” value was 42%. In assay [1] (doxycycline 1 μg/ml, C. pneumoniae MOI 0.1, day 10, versus 5.9±6.0 ng/ml without doxycycline), the “IgE in PBMC culture” value came out at 3.4 ± 3.9 ng/mL. In addition, the “IL-4 level, mean % decrease” value in assay [2] (doxycycline 1 ng/ml, day 2 (48 h), p=0.018) was 30±14%. Also, the “IL-4 level, mean % change” value is reported as −45±33% in assay [2] (doxycycline 0.01 μg/ml, p=0.018) and −60±13% in assay [2] (doxycycline 0.1 μg/ml, p<0.05). Further, the “IFN-γ level, mean % decrease” value in assay [3] (doxycycline 1 ng/ml, day 2 (48 h), p=0.043) is 43±27%. Moreover, the “IFN-γ level, mean % change” value is on record as 5%±11 in assay [3] (doxycycline 0.01 μg/ml) and −1%±18 in assay [3] (doxycycline 0.1 μg/ml).
